Measured values taken from patent US4110536A, “Derivatives of 5-(indol-3-yl)hydantoin” (Miles Laboratories, Inc., priority 1977, dated 1978).
Where two headings read alike, the source gives them in different places.

Assays:
[1] = tested on: chloroform-induced arrhythmias; details: mouse, in vivo, ip, 10 min
Description: The antiarrhythmic activity of the compounds listed above were tested in the experimental model reported by J. W. Lawson (J. Pharmacol. Exp. Therap., 160: 22-31 (1968).
The test compounds were administered in varying intraperitoneal doses to groups consisting of 5 mice. Ten minutes after administration of a given dose of a compound, a mouse was transferred to a covered 300 ml glass beaker that contained a wad of cotton saturated with about 20 ml of chloroform. The animal was observed closely and removed from the beaker immediately after respiratory arrest. The heart was quickly exposed by making an incision through the abdomen, diaphragm, thorax and pericardium for visual inspection of ventricular rate and rhythm. Ventricular contractions were counted for 30 seconds. According to the procedure reported by Lawson, animals with ventricular rate not exceeding 100 contractions during the 30 second observation period were considered protected.

in vivo = details: mouse, ip
Description: (§1) LD50 data were obtained by standard procedures known to the art.
(§2) In order to obtain an indication of the specificity and/or safety margin of the antiarrhythmic effect, the acute toxicity of the compounds was investigated. This was carried out by administering log-spaced intraperitoneal doses of the test compounds to groups of five mice.

[2] = cited from earlier work
[3] = tested on: ventricular arrhythmias induced by digitalis; details: prior-art background; cited from earlier work

Description for mice: as §1, §2

5-[(indol-3-yl)methyl]hydantoin [V (R=II)]
Therapeutic Index (mice; LD50/ED50, mouse, i.p.): 4.3 | LD50 (mice; mouse, in vivo, ip, 2880 min): 307 mg/kg | ED50 [1]: 72 mg/kg

O=C1NC(c2c[nH]c3ccccc23)C(=O)N1CCCN1CCCCC1 (stereo not shown) [Example 6, 5-(Indol-3-yl)-3-[3-(piperid-1-yl)propyl]hydantoin]
LD50 at 48 h (in vivo): 66 mg/kg | selectivity ratio (in vivo): 3.1

O=C1NC(Cc2c[nH]c3ccccc23)C(=O)N1CCCN1CCC(c2ccccc2)CC1 (stereo not shown) [Example 9, 5-(Indol-3-ylmethyl)-3-[3-(4-phenyl-1-piperidyl)propyl]hydantoin]
LD50 at 48 h (in vivo): 19 mg/kg | selectivity ratio (in vivo): 2.5 | ED50 [1]: 7.5 mg/kg

C[N+]1(CCCN2C(=O)NC(Cc3c[nH]c4ccccc34)C2=O)CCC(c2ccccc2)CC1 (stereo not shown) [Example 10, 5-(Indol-3-ylmethyl)-3-[3-(4-phenyl-1-piperidyl)propyl]hydantoin methiodide]
LD50 at 48 h (in vivo): 69 mg/kg | selectivity ratio (in vivo): 3.5 | ED50 [1]: 19.6 mg/kg

O=C1NC(Cc2c[nH]c3ccc(Cl)cc23)C(=O)N1CCCN1CCC(c2ccccc2)CC1 (stereo not shown) [Example 11, 5-(5-Chloroindol-3-ylmethyl)-3-[3-(4-phenyl-1-piperidyl)propyl]hydantoin]
LD50 at 48 h (in vivo): 69 mg/kg | selectivity ratio (in vivo): 1.9 | ED50 [1]: 37 mg/kg

O=C1NC(c2ccccc2)(c2c[nH]c3ccccc23)C(=O)N1CCCN1CCC(c2ccccc2)CC1 (stereo not shown) [Example 12, 5-(Indol-3-yl)-5-phenyl-3-[3-(4-phenyl-1-piperidyl)propyl]hydantoin]
LD50 at 48 h (in vivo): 63 mg/kg | selectivity ratio (in vivo): 0.9 | ED50 [1]: 80 mg/kg

O=C1NC(Cc2c[nH]c3ccccc23)C(=O)N1CCCN1CCC(O)(c2ccccc2)CC1 (stereo not shown) [Example 13, 3-[3-(4-Hydroxy-4-phenylpiperid-1-yl)propyl]-5-[(indol-3-yl)methyl]hydantoi]
LD50 at 48 h (in vivo): 57 mg/kg | selectivity ratio (in vivo): 2.5 | ED50 [1]: 23 mg/kg

CCN(CC)CCCN1C(=O)NC(c2ccccc2)(c2c[nH]c3ccccc23)C1=O (stereo not shown) [Example 14, 3-(3-Diethylaminopropyl)-5-(indol-3-yl)-5-phenylhydantoin]
LD50 at 48 h (in vivo): 48 mg/kg | selectivity ratio (in vivo): 1.8 | ED50 [1]: 27 mg/kg

CCN(CC)CCCN1C(=O)NC(c2c[nH]c3ccccc23)C1=O (stereo not shown) [Example 15, 3-(3-Diethylaminopropyl)-5-(indol-3-yl)hydantoin]
LD50 at 48 h (in vivo): 79 mg/kg | selectivity ratio (in vivo): 1.8 | ED50 [1]: 44 mg/kg

CCN(CC)CCCN1C(=O)NC(Cc2c[nH]c3ccc(Cl)cc23)C1=O (stereo not shown) [Example 17, 5-(5-Chloroindol-3-ylmethyl)-3-(diethylaminopropyl)hydantoin]
LD50 at 48 h (in vivo): 74 mg/kg | selectivity ratio (in vivo): 1.7 | ED50 [1]: 44 mg/kg

CCN(CC)CCCN1C(=O)NC(Cc2c[nH]c3ccc(OC)cc23)C1=O (stereo not shown) [Example 18, 3-(3-Diethylaminopropyl)-5-(5-methoxyindol-3-ylmethyl)hydantoin]
LD50 at 48 h (in vivo): 61 mg/kg | selectivity ratio (in vivo): 4.7 | ED50 [1]: 13 mg/kg

O=C1NC(Cc2c[nH]c3ccccc23)C(=O)N1CCCN1CCCCC1 (stereo not shown) [Example 20, 5-(Indol-3-ylmethyl)-3-(3-piperidylpropyl)hydantoin]
LD50 at 48 h (in vivo): 190 mg/kg | selectivity ratio (in vivo): 8 | ED50 [1]: 23.8 mg/kg

COc1ccc2[nH]cc(CC3NC(=O)N(CCCN4CCC(c5ccccc5)CC4)C3=O)c2c1 (stereo not shown) [Example 21, 5-(5-Methoxyindol-3-ylmethyl)-3-[3-(4-phenylpiperid-1-yl)propyl]hydantoin]
LD50 at 48 h (in vivo): 24 mg/kg | selectivity ratio (in vivo): 2.7 | ED50 [1]: 9 mg/kg

O=C1NC(=O)C(c2ccccc2)(c2ccccc2)N1 [III, 5,5-diphenyl-2,4-imidazolidinedione]
side effects / toxicity ([2]; in vivo): dizziness, nausea, emesis, nystigmus, and ataxia | side effects / toxicity ([2]; prior-art background, listed as DPH): toxic and may produce atrio-ventricular blockage, bradycardia, or even cardiac arrest | antiarrhythmic effects [3]: specifically antagonizes ventricular arrhythmias induced by digitalis, depresses ventricular automaticity, enhances atrio-ventricular nodal conduction, and reduces the effective refractory period | ED50 [1]: 123 mg/kg

C=C[C@H]1C[N@@]2CC[C@H]1C[C@@H]2[C@@H](O)c1ccnc2ccc(OC)cc12 [Quinidine]
side effects / toxicity ([2]; prior-art background): relatively toxic
